Laboratory results: patent US11739098B2 (BRISTOL-MYERS SQUIBB COMPANY, priority 2017, dated 2023)

What was measured:
Assay type in all cases: cell-based
[1] = molecular target: T1, human TLR7 (Homo sapiens, UniProt Q9NYK1); test: TLR7 inhibition reporter assay (HEK-Blue cells, SEAP reporter, gardiquimod stimulation); conditions: HEK-Blue cells overexpressing human TLR7, SEAP reporter, gardiquimod 7.5 μM
T1 construct: host or cells: HEK-Blue cells (HEK293-derived reporter line)
T1 sequence (Q9NYK1 27-1049): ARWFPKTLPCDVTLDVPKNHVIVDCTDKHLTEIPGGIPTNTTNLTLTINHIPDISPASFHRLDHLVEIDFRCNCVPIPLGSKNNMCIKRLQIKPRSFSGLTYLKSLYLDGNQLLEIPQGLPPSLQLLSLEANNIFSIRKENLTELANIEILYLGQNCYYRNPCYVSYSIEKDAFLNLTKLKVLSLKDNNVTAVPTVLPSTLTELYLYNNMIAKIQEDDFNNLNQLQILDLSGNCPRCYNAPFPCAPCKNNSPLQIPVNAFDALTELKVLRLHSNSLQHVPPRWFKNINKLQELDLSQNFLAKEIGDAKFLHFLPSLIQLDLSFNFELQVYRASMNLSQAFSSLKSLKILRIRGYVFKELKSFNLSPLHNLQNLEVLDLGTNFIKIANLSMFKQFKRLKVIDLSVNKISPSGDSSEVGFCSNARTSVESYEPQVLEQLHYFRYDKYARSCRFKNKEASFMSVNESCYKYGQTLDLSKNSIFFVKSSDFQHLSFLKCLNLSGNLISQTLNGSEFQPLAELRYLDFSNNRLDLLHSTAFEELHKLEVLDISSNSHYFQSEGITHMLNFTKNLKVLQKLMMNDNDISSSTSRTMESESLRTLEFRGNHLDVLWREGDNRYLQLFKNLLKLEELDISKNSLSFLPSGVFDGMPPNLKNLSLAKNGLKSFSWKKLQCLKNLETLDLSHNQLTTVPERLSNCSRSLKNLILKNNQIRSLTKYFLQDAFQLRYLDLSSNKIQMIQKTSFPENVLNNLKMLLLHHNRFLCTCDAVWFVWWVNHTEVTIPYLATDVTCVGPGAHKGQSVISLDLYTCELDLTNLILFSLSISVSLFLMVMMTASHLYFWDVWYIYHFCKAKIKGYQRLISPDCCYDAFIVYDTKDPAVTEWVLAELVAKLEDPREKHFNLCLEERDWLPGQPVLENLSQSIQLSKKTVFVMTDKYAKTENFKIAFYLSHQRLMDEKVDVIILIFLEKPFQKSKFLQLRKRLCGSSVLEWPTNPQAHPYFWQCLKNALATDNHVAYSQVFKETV
Procedure, shortened: (§1)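 Percent inhibition of agonist-induced SEAP secretion in HEK-Blue cells after 22 h at 37 °C. Stimuli: 7.5 μM gardiquimod, 15.9 μM R848, 5 nM ODN2006 for TLR7, TLR8 and TLR9, added after 30 min compound exposure over a 0.05 nM–50 μM range.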

[2] = molecular target: T2, human TLR8 (Homo sapiens, UniProt Q9NR97); test: TLR8 inhibition reporter assay (HEK-Blue cells, SEAP reporter, R848 stimulation); conditions: HEK-Blue cells overexpressing human TLR8, SEAP reporter, R848 15.9 μM
T2 construct: host or cells: HEK-Blue cells (HEK293-derived reporter line)
T2 sequence (Q9NR97 27-1041): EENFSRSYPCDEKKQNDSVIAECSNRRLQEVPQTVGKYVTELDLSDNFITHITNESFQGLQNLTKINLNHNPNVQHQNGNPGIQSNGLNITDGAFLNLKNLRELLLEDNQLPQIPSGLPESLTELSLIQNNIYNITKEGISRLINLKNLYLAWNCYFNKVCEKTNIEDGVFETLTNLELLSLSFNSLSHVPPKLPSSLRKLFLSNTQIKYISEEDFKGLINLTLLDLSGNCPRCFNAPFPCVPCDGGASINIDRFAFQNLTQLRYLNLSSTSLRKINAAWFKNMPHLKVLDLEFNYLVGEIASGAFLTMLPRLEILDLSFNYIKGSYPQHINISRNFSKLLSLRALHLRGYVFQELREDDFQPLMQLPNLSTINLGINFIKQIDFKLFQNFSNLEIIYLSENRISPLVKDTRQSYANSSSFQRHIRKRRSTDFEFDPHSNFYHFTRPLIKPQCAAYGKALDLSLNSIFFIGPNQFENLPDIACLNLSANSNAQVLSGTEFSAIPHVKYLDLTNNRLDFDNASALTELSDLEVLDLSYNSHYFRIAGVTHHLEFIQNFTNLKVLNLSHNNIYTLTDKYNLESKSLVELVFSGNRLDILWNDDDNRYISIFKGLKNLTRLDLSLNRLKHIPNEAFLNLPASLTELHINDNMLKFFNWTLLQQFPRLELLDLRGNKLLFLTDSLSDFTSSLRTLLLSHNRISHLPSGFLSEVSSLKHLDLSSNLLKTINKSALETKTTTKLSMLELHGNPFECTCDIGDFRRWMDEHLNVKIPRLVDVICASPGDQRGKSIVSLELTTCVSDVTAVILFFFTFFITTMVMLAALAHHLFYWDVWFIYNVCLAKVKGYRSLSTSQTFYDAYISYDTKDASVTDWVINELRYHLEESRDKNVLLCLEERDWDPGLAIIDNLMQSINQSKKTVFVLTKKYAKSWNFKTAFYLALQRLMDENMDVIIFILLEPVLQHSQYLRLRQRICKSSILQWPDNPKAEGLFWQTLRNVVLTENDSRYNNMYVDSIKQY
Procedure, shortened: as §1

[3] = molecular target: T3, human TLR9 (Homo sapiens, UniProt Q9NR96); test: TLR9 inhibition reporter assay (HEK-Blue cells, SEAP reporter, ODN2006 stimulation); conditions: HEK-Blue cells overexpressing human TLR9, SEAP reporter, ODN2006 5 nM
T3 construct: host or cells: HEK-Blue cells (HEK293-derived reporter line)
T3 sequence (Q9NR96 26-1032): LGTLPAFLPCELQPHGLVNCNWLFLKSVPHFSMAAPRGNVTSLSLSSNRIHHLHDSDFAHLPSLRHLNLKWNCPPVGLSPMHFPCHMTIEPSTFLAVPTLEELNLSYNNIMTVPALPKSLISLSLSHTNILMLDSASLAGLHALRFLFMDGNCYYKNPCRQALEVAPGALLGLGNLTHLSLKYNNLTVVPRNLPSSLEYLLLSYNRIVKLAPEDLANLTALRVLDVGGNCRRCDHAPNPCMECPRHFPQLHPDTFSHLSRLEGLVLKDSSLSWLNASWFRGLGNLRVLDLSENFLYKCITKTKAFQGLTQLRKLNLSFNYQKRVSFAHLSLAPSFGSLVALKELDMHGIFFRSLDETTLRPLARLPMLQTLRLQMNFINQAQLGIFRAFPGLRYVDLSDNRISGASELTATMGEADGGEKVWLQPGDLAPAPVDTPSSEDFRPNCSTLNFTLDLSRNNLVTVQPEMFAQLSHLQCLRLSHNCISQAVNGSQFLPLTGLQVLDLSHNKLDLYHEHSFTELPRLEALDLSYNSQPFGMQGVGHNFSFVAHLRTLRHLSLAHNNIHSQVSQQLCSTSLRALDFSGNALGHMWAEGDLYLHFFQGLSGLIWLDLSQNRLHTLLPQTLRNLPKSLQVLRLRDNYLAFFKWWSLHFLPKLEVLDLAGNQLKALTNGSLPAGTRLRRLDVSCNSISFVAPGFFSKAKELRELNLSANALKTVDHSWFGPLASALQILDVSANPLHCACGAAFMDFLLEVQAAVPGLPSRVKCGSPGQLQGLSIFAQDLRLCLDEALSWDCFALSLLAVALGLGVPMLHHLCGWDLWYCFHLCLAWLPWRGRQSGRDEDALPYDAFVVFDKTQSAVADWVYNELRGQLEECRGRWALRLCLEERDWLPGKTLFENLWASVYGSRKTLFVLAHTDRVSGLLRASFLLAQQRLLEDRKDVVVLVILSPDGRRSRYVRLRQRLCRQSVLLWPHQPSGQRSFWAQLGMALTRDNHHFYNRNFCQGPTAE
Procedure, shortened: as §1

| IC50 [1] | IC50 [2] | IC50 [3] | SMILES |
| --- | --- | --- | --- |
| < 0.1 µM | 0.1 to 1 µM | 0.1 to 1 µM | Cc1cn2cc(-c3[nH]c4ccc(C5CCNCC5)cc4c3C(C)C)ccc2n1 [Example 115, 6-(3-isopropyl-5-(piperidin-4-yl)-1H-indol-2-yl)-2-methylimidazo[1,2-a]pyridine] |
| < 0.1 µM | 0.1 to 1 µM | 1 to 50 µM | Cc1cc(-c2[nH]c3ccc(C4CCN(C(=O)C[C@H](C)O)CC4)cc3c2C(C)C)cc2ncnn12 [Example 600, (S)-3-hydroxy-1-(4-(3-isopropyl-2-(5-methyl-[1,2,4]triazolo[1,5-a]pyridin-7-yl)-1H-indol-5-yl)piperidin-1-yl)butan-1-one] |
| 1 to 50 µM | 1 to 50 µM | 1 to 50 µM | Cc1cccc2cc(CN3CCC(c4ccc5[nH]c(-c6ccnc7[nH]ncc67)c(C(C)C)c5c4)CC3)c(Cl)nc12 [Example 922, 2-chloro-3-((4-(3-isopropyl-2-(1H-pyrazolo[3,4-b]pyridin-4-yl)-1H-indol-5-yl)piperidin-1-yl)methyl)-8-methylquinoline] |
| 1 to 50 µM | < 0.1 µM | < 0.1 µM | Cc1c(-c2ncnn3cccc23)[nH]c2ccc(C3CCN(C4CCN(C(C)C)CC4)CC3)cc12 [Example 806, 4-(5-(1′-isopropyl-[1,4′-bipiperidin]-4-yl)-3-methyl-1H-indol-2-yl)pyrrolo[2,1-f][1,2,4]triazine] |
| < 0.1 µM | < 0.1 µM | 1 to 50 µM | Cc1ccc(-c2[nH]c3ccc(C4CCN(C(=O)CN(C)C)CC4)cc3c2C(C)C)c2ncnn12 [Example 516, 2-(dimethylamino)-1-(4-(3-isopropyl-2-(5-methyl-[1,2,4]triazolo[1,5-a]pyridin-8-yl)-1H-indol-5-yl)piperidin-1-yl)ethan-1-one] |
| < 0.1 µM | < 0.1 µM | 1 to 50 µM | Cc1c(-c2[nH]c3ccc(C4CCNCC4)cc3c2C(C)C)nn2ncnc2c1C [Example 32, 6-(3-isopropyl-5-(piperidin-4-yl)-1H-indol-2-yl)-7,8-dimethyl-[1,2,4]triazolo[1,5-b]pyridazine] |
| 0.1 to 1 µM | 0.1 to 1 µM | 0.1 to 1 µM | CC(C)c1c(-c2ncnn3cccc23)[nH]c2ccc(C3CCN(CC(=O)N(C)C)CC3)cc12 [Example 424, 2-(4-(3-isopropyl-2-(pyrrolo[2,1-f][1,2,4]triazin-4-yl)-1H-indol-5-yl)piperidin-1-yl)-N,N-dimethylacetamide] |
| < 0.1 µM | < 0.1 µM | 1 to 50 µM | CC(C)c1c(-c2cc(Cl)c3ncccc3c2)[nH]c2ccc(C3CCN(CC(=O)N(C)C)CC3)cc12 [Example 380, 2-(4-(2-(8-chloroquinolin-6-yl)-3-isopropyl-1H-indol-5-yl)piperidin-1-yl)-N,N-dimethylacetamide] |
| < 0.1 µM | 0.1 to 1 µM | 0.1 to 1 µM | CNCC(=O)N1CCC(c2ccc3[nH]c(-c4cn5ccnc5c(C)c4C)c(C(C)C)c3c2)CC1 [Example 548, 1-(4-(2-(7,8-dimethylimidazo[1,2-a]pyridin-6-yl)-3-isopropyl-1H-indol-5-yl)piperidin-1-yl)-2-(methylamino)ethan-1-one] |
| 0.1 to 1 µM | < 0.1 µM | 1 to 50 µM | CC(C)c1c(-c2ccnc3[nH]ncc23)[nH]c2ccc(C3CCN(Cc4ccc(N5CCCC5)cc4)CC3)cc12 [Example 905, 4-(3-isopropyl-5-(1-(4-(pyrrolidin-1-yl)benzyl)piperidin-4-yl)-1H-indol-2-yl)-1H-5 pyrazolo[3,4-b]pyridine] |
| 1 to 50 µM | 0.1 to 1 µM | 0.1 to 1 µM | Cc1cc(-c2[nH]c3ccc(C4CCN(CC(C)(C)O)CC4)cc3c2C(C)C)cc2nccn12 [Example 757, 1-(4-(3-isopropyl-2-(5-methylimidazo[1,2-a]pyridin-7-yl)-1H-indol-5-yl)piperidin-1-yl)-2-methylpropan-2-ol] |
| 0.1 to 1 µM | 0.1 to 1 µM | 1 to 50 µM | CC(C)c1c(-c2ccnc3[nH]ncc23)[nH]c2ccc(C3CCN(C(=O)C4CCNCC4)CC3)cc12 [Example 649, (4-(3-isopropyl-2-(1H-pyrazolo[3,4-b]pyridin-4-yl)-1H-indol-5-yl)piperidin-1-yl)(piperidin-4-yl)methanone] |
| < 0.1 µM | < 0.1 µM | 1 to 50 µM | CC(C)c1c(-c2ccc3ncsc3c2)[nH]c2ccc(C3CCNCC3)cc12 [Example 9, 6-(3-isopropyl-5-(piperidin-4-yl)-1H-indol-2-yl) benzo[d]thiazole] |

| SMILES | IC50 [1] | IC50 [2] | IC50 [3] |
| --- | --- | --- | --- |
| Cc1cc(-c2[nH]c3ccc(C4CCN(C(=O)CCN5[C@@H]6CC[C@H]5COC6)CC4)cc3c2C(C)C)cn2nnnc12 [Example 635, 3-((1R,5S)-3-oxa-8-azabicyclo[3.2.1]octan-8-yl)-1-(4-(3-isopropyl-2-(8-methyltetrazolo[1,5-a]pyridin-6-yl)-1H-indol-5-yl)piperidin-1-yl)propan-1-one] | < 0.1 µM | < 0.1 µM | 1 to 50 µM |
